Reference: patent US7381428B2, “Stabilized lanthanum carbonate compositions” (Shire International Licensing B.V., priority 2003, dated 2008)

Legend:
Format in all cases: physicochemical
[1] = Thermal and moisture stress study of lanthanum carbonate/excipient mixtures, decarboxylation to lanthanum hydroxycarbonate (HC) monitored by XRPD
Protocol: Excipient compatibility studies of hydrated lanthanum carbonate having a water content approximately equivalent to 4-5 moles of water and anhydrous lanthanum carbonate were performed to determine whether different classes of saccharide excipients would retard or prevent the appearance of decarboxylation products in thermally- and moisture-stressed solid lanthanum carbonate mixtures.
Conditions which would cause the formation of decarboxylation products in substantially pure hydrated lanthanum carbonate within one week were used. Mixtures of 1:1 or 96:4 (by weight) of hydrated lanthanum carbonate and a test excipient or 1:1 (by weight) anhydrous lanthanum carbonate and a test excipient were prepared and stressed, and samples were analyzed by XRPD (X-ray powder diffraction) as a function of exposure time.
Weighed samples of hydrated lanthanum carbonate/excipient (1:1 or 96:4 by weight) or anhydrous lanthanum carbonate/excipient (1:1 by weight) were sealed into scintillation vials and placed onto a Turbula mixer. Samples were mixed for ten minutes to ensure sample homogeneity.
Saturated salt solutions of Na2SO4.10H2O (˜95% RH (relative humidity)) or NaNO3 (65% RH) were prepared and placed into sealed chambers. The chambers were placed into a 60° C. oven overnight and the presence of solids was confirmed after 24 hours. These chambers were then subsequently used for the stressing studies of the various excipient/lanthanum carbonate mixtures. The lower humidity conditions were utilized for the D-sorbitol and dextrates excipients because they deliquesce under the more extreme conditions of 60° C./95% RH.
XRPD analyses were performed using a Shimadzu XRD-6000 X-ray powder diffractometer using Cu Kα radiation. […]
At the experimental onset, the hydrated lanthanum carbonate was stressed under two conditions, 60° C./95% RH and 60° C./65% RH, in order to establish a baseline for monitoring decarboxylation. Individual samples were pulled after 1, 2, 3, 4, and 7 days and immediately analyzed by XRPD. […]

[2] = Degradation to lanthanum hydroxycarbonate at room temperature / standard ambient conditions
[3] = Decarboxylation of hydrated lanthanum carbonate at standard ICH stability conditions, lanthanum hydroxycarbonate content by XRPD; conditions: 25° C./60% RH, 30° C./60% RH and 40° C./75% RH, up to 2 years
Protocol: Unformulated hydrated lanthanum carbonate and formulated hydrated lanthanum carbonate tablets containing approximately 50% (by weight) dextrates were exposed to the standard ICH stability conditions of 25° C./60% RH, 30° C./60% RH and 40° C./75% RH for a period up to 2 years. Samples were removed periodically over this time and tested for their lanthanum hydroxycarbonate content using x-ray powder diffraction.

Compound | time after which decarboxylation product HC was initially seen (XRPD) ([1]; 60° C./95% RH) | time within which degradation to lanthanum hydroxycarbonate occurs [2] | time after which decarboxylation product HC was initially seen (XRPD) ([1]; 60° C./65% RH) | degradation (decarboxylation) to lanthanum hydroxycarbonate [3]
O=C([O-])[O-].O=C([O-])[O-].O=C([O-])[O-].[La+3].[La+3] [substantially pure lanthanum carbonate, La2(CO3)3.xH2O] | 1 days | 9-12 months | – | –
hydrated lanthanum carbonate | one | – | single | significant degradation
